Reference: patent publication US20130295551A1, “MICROFLUIDIC DEVICE AND METHOD FOR MODULATING A GAS ENVIRONMENT OF CELL CULTURES AND TISSUES” (THE BOARD OF TRUSTEES OF THE UNIVERSITY OF ILLINOIS, priority 2012, published 2013)

Legend:
Type in all cases: cell-based, C57BL/6 mice
islets [1] = assay: Islet glucose-stimulated calcium response (FURA ratio) under hypoxia in microfluidic device
Protocol: To quantify their response to hypoxia, FURA-incubated islets were loaded into the multimodal device and exposed to 21%, 10%, and 5% oxygen while monitoring their calcium responses. In the GSIR mechanism, the calcium response correlates with insulin secretion, thus a stimulatory glucose pulse will result in a pulse in intracellular calcium. Under 21% oxygen flow, normoxic for ex vivo islets, the calcium responded with standard bi-phasic profile with magnitudes 1.3 times above their baseline, as shown in FIG. 8A. Note that subsequent hypoxic conditions were normalized against this normoxic pulse. When the islets were exposed to 5% hypoxia for 30 minutes (under zero flow), their calcium response lost both pulse magnitude as well as phase information. […] Quantitatively, the pulse height was depressed below 50% of the normoxic pulse, for both 10% and 5% hypoxia.
Islets were incubated in 100 μM diazoxide for 10 minutes and washed in Krebs buffer for 10 minutes prior to hypoxia and glucose stimulation. […] Both mitochondrial hyperpolarization and insulin secretion were improved with diazoxide compared to IH+5HD, as shown in FIG. 10B.
C57BL/6 mice were sacrificed as islet donors for the murine islet experiments. 5 ml collagenase P solution at 0.375 mg/ml in HBSS was prepared for each animal and kept on ice. The animal was euthanized with CO2 and 3% isoflurane followed by cervical dislocation to ensure no discomfort. The animal was disinfected with 70% ethanol before making a V-incision at the genital area and moving the bowel to clearly expose the bile duct. The ampulla on the surface of duodenum was clamped with a hemostat. The pancreas was then distended (inflated) through the bile duct with a 30-gauge needle with 5 ml syringe containing 2 ml of cold collagenase solution, starting at the gall bladder. The pancreas was then removed and placed in a 15 ml tube containing 2 ml of collagenase solution in a 37° C. water bath for 12 minutes. Then, 10 ml of cold HBSS was added to stop the digestion when 80% of the pancreas has disintegrated. […]

islets [2] = assay: Islet mitochondrial hyperpolarization by Rhodamine 123 fluorescence
Protocol: The effects of hypoxia and intermittent hypoxia preconditioning on calcium were paralleled by changes in insulin secretion and mitochondrial potential, as measured by off-chip insulin ELISA and Rhodamine 123 fluorescence, respectively. Insulin fractions were collected at 1 minute intervals during flow, with a stop-flow incubation period during the glucose exposure, as shown in FIG. 10A. The hypoxic pulse rendered insulin response down to basal levels (even drifting below baseline) while preconditioning improved insulin to 85% of normoxia while exposed to hypoxia. However, all insulin samples were collected in the same manner to account for this issue. Mitochondria hyperpolarization, monitored with Rhodamine uptake and self-quenching, was improved with IH preconditioning compared to hypoxia exposure alone. […] Islets were incubated in 100 μM diazoxide for 10 minutes and washed in Krebs buffer for 10 minutes prior to hypoxia and glucose stimulation. […] Both mitochondrial hyperpolarization and insulin secretion were improved with diazoxide compared to IH+5HD, as shown in FIG. 10B. […] All fluids perfused through the MIIH device were prepared in Krebs Ringer bicarbonate buffer: 129 mM NaCl, 5 mM NaHCO3, 4.7 mM KCl, 1.2 mM KH2PO4, 1 mM CaCl2.2H2O, 1.2 mM MgSO4.7H2O, 10 mM HEPES pH 7.35-7.40. […] FURA was excited at 340 and 380 nm and measured at 510 nm while Rho123 was excited at 495 nm and measured at 530 nm FURA measurements were expressed as a ratio of 340 nm over 380 nm intensities. […] The data was then normalized against the standard normoxic pulse to minimize variation between experiments and the results were expressed as “FURA Ratio %”. Rho123 measurement and the associated hyperpolarization drop were also analyzed similarly by normalizing against a normoxic standard. The insulin ELISA timepoints, measured in ng/mL, was expressed as an index of the maximum value over the baseline average to account for the stop flow during glucose/hypoxic incubation and also varying number of islets in the experiments. […]

islets [3] = assay: Islet insulin secretion, off-chip insulin ELISA
Protocol: The effects of hypoxia and intermittent hypoxia preconditioning on calcium were paralleled by changes in insulin secretion and mitochondrial potential, as measured by off-chip insulin ELISA and Rhodamine 123 fluorescence, respectively. Insulin fractions were collected at 1 minute intervals during flow, with a stop-flow incubation period during the glucose exposure, as shown in FIG. 10A. The hypoxic pulse rendered insulin response down to basal levels (even drifting below baseline) while preconditioning improved insulin to 85% of normoxia while exposed to hypoxia. However, all insulin samples were collected in the same manner to account for this issue. Mitochondria hyperpolarization, monitored with Rhodamine uptake and self-quenching, was improved with IH preconditioning compared to hypoxia exposure alone. […] Islets were incubated in 100 μM diazoxide for 10 minutes and washed in Krebs buffer for 10 minutes prior to hypoxia and glucose stimulation. […] Both mitochondrial hyperpolarization and insulin secretion were improved with diazoxide compared to IH+5HD, as shown in FIG. 10B. […] Glucose and Krebs buffer flow were only introduced while washing or stimulating the islets, and flow was stopped at all other times. […] The plates were read in a Biotek Synergy 2 plate reader. […] FURA was excited at 340 and 380 nm and measured at 510 nm while Rho123 was excited at 495 nm and measured at 530 nm FURA measurements were expressed as a ratio of 340 nm over 380 nm intensities. […] The data was then normalized against the standard normoxic pulse to minimize variation between experiments and the results were expressed as “FURA Ratio %”. Rho123 measurement and the associated hyperpolarization drop were also analyzed similarly by normalizing against a normoxic standard. The insulin ELISA timepoints, measured in ng/mL, was expressed as an index of the maximum value over the baseline average to account for the stop flow during glucose/hypoxic incubation and also varying number of islets in the experiments. […]

[4] = 100 μM diazoxide, not statistically significant
[5] = 100 μM diazoxide, 5% hypoxia, FIG. 10B

Row | Compound | preconditioning of islets under hypoxia (glucose calcium response) (islets [1]; 100 μM diazoxide 10 minutes, washed in Krebs buffer 10 minutes prior to 5% hypoxia and glucose stimulation) | calcium response compared to IH preconditioning alone (islets [1]; [4]) | mitochondrial hyperpolarization compared to IH+5HD (islets [2]; [5]) | mitochondrial hyperpolarization compared to IH preconditioning alone (islets [2]; [4]) | insulin secretion compared to IH+5HD (islets [3]; [5]) | insulin response compared to IH preconditioning alone (islets [3]; [4]) | preconditioning of islets under hypoxia (FURA profile) (islets [1]; IH (1 m/1 m cycle, 60 min total) and 100 μM 5HD simultaneously) | mitochondrial hyperpolarization with 5HD (islets [2]; IH plus 5HD) | preconditioned insulin response with 5HD (islets [3]; IH plus 5HD)
1 | CC1=NS(=O)(=O)c2cc(Cl)ccc2N1 [diazoxide] | provided preconditioning benefits | higher average | improved | less than that of IH preconditioning alone | improved | higher average |  |  | 
2 | CCCCCC(O)CCCC(=O)O (stereo not drawn) [5HD, 5-hydroxydecanoic acid] |  |  |  |  |  |  | failed to be preconditioned | decreased mitochondrial hyperpolarization | decoupling of preconditioned insulin response
